One assay has as its system B. subtilis Sfp. As to the kind of experiment: SPOT cellulose membrane peptide labeling with TAMRA-CoA by Sfp. The following applies: 10 µM PPTase, 40 µM TAMRA-CoA, 0.01% Triton X, 15 µM BSA, 50 mM Tris-HCl pH 8.0, 10 mM MgCl2, 16 h, 37 °C, fluorescence ex 532 nm/em 580 nm. Type of assay: biochemical, Bacillus subtilis. As to the method:
(§1) The peptides were synthesized on an amino-PEG-cellulose 10×15 cm^2 membrane and synthesized automatically by MultiPep RSi (INTAVIS Bioanalytical Instruments AG). After Fmoc cleavage with 20% 4-methyl piperidine (Sigma) in dimethylformamide (DMF), activated with 1 equiv. hydroxybenzotriazole and 2 equiv. N-methylpyrrolidone (NMP), and directly spotted on the membrane; after 15 min this step was repeated. The membrane was washed with DMF (3 × 3 min). Solutions of the Fmoc amino acids in NMP were spotted on the membrane (0.6 M solutions; 0.8 M solutions for C, H, N, Q, and R; triple coupling, 15 min each). The Fmoc group was removed from the spots, and the sequences of the peptides were completed using the standard SPOT synthesis protocol and followed by an N-terminal tag. […]
(§2) Synthesized membranes were deprotected with cleavage cocktail consisting of 94% trifluoroacetic acid (TFA), 2.5% water, 1% triisopropylsilane (Sigma), and 2.5% 1,2-ethanedithiol (Sigma) shaking at 2 h at room temperature. […] The membranes were rinsed liberally with TBST buffer, 0.1% TFA, and distilled deionized water before imaging on a Typhoon TRIO Variable Mode Imager (GE Healthcare BioSciences) at 50-µm resolution with 532 nm green laser excitation and 580 nm emission filter and a photomultiplier tube setting of 350 V. The membrane images were analyzed by the ImageJ software[37],[38].

The next assay has as its system S. coelicolor AcpS. The experiment in a line: SPOT cellulose membrane peptide labeling with TAMRA-CoA by AcpS. It is filed as biochemical, Streptomyces coelicolor. The note with it: 10 µM PPTase, 40 µM TAMRA-CoA, 0.01% Triton X, 15 µM BSA, 50 mM Tris-HCl pH 8.0, 10 mM MgCl2, 16 h, 37 °C, fluorescence ex 532 nm/em 580 nm. On the procedure:
as §1, §2

Entries after “also recorded” stand apart in the source; their conditions may differ.

For “AVKMESLEYLDTM [4F01, Sfp-type peptide hit identified by POOL, round 4]”, the “labeling of membrane-bound peptide by Sfp (substrate / hit)” value in the assay on B. subtilis Sfp was “Sfp-type peptide hits; also recorded: specific to Sfp”.
IHDGADSVVWLWSNC: in the assay with B. subtilis Sfp, the “labeling of membrane-bound peptide by Sfp (substrate / hit)” value was “neither a substrate for Sfp nor AcpS”. The “labeling of membrane-bound peptide by AcpS (substrate / hit)” value in the assay on S. coelicolor AcpS is “neither a substrate for Sfp nor AcpS”.
As for “WPEEGIESFMSVPPP [4T25, AcpS-type peptide hit identified by POOL, round 4]”, the “labeling of membrane-bound peptide by AcpS (substrate / hit)” value in the assay on S. coelicolor AcpS is “AcpS-type peptide hits; also recorded: specific to AcpS”.

The record behind these values is publication PMC6286390, “Discovering de novo peptide substrates for enzymes using machine learning” (Nature Communications, 2018).
